In patent US9884819B2, “Tetrahydrocarbazole inhibitors of SIRT1 receptors” (Auspex Pharmaceuticals, Inc., priority 2016, dated 2018):

Assays:
[1] = target: CYP3A4 (Homo sapiens, UniProt P08684); assay: In vitro metabolism using human cytochrome P450 enzymes (CYP3A4); settings: for Clint: Cyp 3A4; for Percent Remaining (%) 0 min: Cyp 3A4, 0 min; for Percent Remaining (%) 0 min / Percent Remaining (%) 15 min / Percent Remaining (%) 30 min / Percent Remaining (%) 45 min / Percent Remaining (%) 60 min: mean; for Percent Remaining (%) 15 min: Cyp 3A4, 15 min; for Percent Remaining (%) 30 min: Cyp 3A4, 30 min; for Percent Remaining (%) 45 min: Cyp 3A4, 45 min; for Percent Remaining (%) 60 min: Cyp 3A4, 60 min; for half-life at 0.2 mM: human, pH 7.4
Sequence of CYP3A4 (P08684 whole entry): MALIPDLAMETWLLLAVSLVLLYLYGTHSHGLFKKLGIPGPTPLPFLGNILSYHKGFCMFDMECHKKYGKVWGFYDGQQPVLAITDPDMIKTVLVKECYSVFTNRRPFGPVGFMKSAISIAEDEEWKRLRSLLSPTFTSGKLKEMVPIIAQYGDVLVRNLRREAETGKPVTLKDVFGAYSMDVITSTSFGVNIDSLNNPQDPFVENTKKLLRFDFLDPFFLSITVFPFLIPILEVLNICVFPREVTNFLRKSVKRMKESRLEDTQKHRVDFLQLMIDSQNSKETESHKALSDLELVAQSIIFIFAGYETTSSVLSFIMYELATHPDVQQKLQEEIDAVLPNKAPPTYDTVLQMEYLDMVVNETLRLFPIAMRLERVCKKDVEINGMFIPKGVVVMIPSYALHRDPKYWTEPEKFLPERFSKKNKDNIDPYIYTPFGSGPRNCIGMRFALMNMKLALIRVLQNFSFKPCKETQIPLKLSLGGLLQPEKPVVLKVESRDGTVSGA

[2] = target: T1, CYP1A2 (Homo sapiens, UniProt P05177); assay: In vitro metabolism using human cytochrome P450 enzymes (CYP1A2); format: in vitro ADME; settings: for Clint / half-life at 0.2 mM: Cyp 1A2; for Percent Remaining (%) 0 min: Cyp 1A2, 0 min; for Percent Remaining (%) 0 min / Percent Remaining (%) 15 min / Percent Remaining (%) 30 min / Percent Remaining (%) 45 min / Percent Remaining (%) 60 min: mean; for Percent Remaining (%) 15 min: Cyp 1A2, 15 min; for Percent Remaining (%) 30 min: Cyp 1A2, 30 min; for Percent Remaining (%) 45 min: Cyp 1A2, 45 min; for Percent Remaining (%) 60 min: Cyp 1A2, 60 min; for half-life at 0.2 mM: human, recombinant CYP1A2 (baculovirus expression system), pH 7.4
T1 construct: purchased BD Biosciences, San Jose, Calif
T1 sequence (P05177 1-516): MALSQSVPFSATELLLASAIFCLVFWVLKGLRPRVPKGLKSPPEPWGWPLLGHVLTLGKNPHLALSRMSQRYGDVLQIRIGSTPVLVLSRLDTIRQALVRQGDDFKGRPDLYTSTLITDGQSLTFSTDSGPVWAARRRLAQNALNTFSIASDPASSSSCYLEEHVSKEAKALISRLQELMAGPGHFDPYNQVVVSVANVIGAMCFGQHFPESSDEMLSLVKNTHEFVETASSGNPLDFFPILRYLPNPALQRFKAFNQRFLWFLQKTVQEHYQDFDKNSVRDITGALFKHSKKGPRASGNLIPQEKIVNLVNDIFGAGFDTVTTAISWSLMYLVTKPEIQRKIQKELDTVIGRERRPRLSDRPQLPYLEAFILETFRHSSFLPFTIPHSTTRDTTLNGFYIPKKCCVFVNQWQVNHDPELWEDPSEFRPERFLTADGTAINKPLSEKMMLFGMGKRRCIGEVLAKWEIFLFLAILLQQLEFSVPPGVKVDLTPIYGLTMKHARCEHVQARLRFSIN

[3] = In vitro human liver microsomal stability assay; format: in vitro ADME; settings: for Percent Remaining (%) 0 min / Percent Remaining (%) 15 min / Percent Remaining (%) 30 min / Percent Remaining (%) 60 min / Percent Remaining (%) 120 min: human liver microsomes 2 mg/mL, 1 μM compound; for Percent Remaining (%) 0 min / Percent Remaining (%) 15 min / Percent Remaining (%) 30 min / Percent Remaining (%) 60 min / Percent Remaining (%) 120 min / Percent Remaining (%) 120 min w/o NADPH: mean; for Percent Remaining (%) 120 min w/o NADPH: 120 min without NADPH; for CLint scaled at 1 μM / half-life at 1 μM: pH 7.4
Experimental: Human liver microsomal stability assays are conducted at 2 mg per mL liver microsome protein with an NADPH-generating system consisting of NADP (1 mM, pH 7.4), […] (5 mM, pH 7.4), and glucose-6-phosphate dehydrogenase (1 unit/mL). Test compounds were prepared as solutions in DMSO and added to the assay mixture (1 μM, final concentration in incubation) and were incubated at 37±1° C. […] Samples were centrifuged (920×g for 10 min at 10° C.) in 96-well plates. Supernatant fractions were analyzed by LC-MS/MS to determine the percent remaining and estimate the degradation half-life of the test compounds.

[4] = test system: R6/2 mouse; settings: transgenic r6/2 mouse model; cited from earlier work
[5] = test system: drosophila model of HD; settings: cited from earlier work
[6] = cited from earlier work
[7] = recombinant CYP3A4 (baculovirus expression system)
[8] = human liver microsomes, degradation half-life
[9] = human, single-dose phase, average
[10] = human, single-dose phase, range

Row | Structure (SMILES) | Clint [1] | Percent Remaining (%) 0 min [1] | Percent Remaining (%) 15 min [1] | Percent Remaining (%) 30 min [1] | Percent Remaining (%) 45 min [1] | Percent Remaining (%) 60 min [1] | half-life at 0.2 mM [1, 7] | Clint [2] | Percent Remaining (%) 0 min [2] | Percent Remaining (%) 15 min [2] | Percent Remaining (%) 30 min [2] | Percent Remaining (%) 45 min [2] | Percent Remaining (%) 60 min [2] | half-life at 0.2 mM [2] | Percent Remaining (%) 0 min [3] | Percent Remaining (%) 15 min [3] | Percent Remaining (%) 30 min [3] | Percent Remaining (%) 60 min [3] | Percent Remaining (%) 120 min [3] | Percent Remaining (%) 120 min w/o NADPH ([3]; human liver microsomes) | other results
1 | [2H]C1(C(N)=O)CCCc2c1[nH]c1ccc(Cl)cc21 (stereo not shown) [Example 2, 6-chloro-1-deutero-2,3,4,9-tetrahydro-1H-carbazole-1-carboxamide] | 0.00013 mL/min/pmol | 100.00% | 69.07% | 59.14% | 54.63% | 53.05% | 52.8 min | 0.0002 mL/min/pmol | 100.00% | 48.53% | 27.30% | 17.05% | 12.99% | 17.7 min | 100% | 100.12% | 85.44% | 71.84% | 59.95% | 100.36% | CLint scaled at 1 μM ([3]; human liver microsomes): 11.4 mL/min/kg; half-life at 1 μM [3, 8]: 152 min
2 | CCOc1ccc(NC(C)=O)cc1 [Phenacetin] | – | – | – | – | – | – | – | 0.00018 mL/min/pmol | 100.00% | 53.02% | 31.01% | 20.20% | 15.08% | – | – | – | – | – | – | – | –
3 | NC(=O)C1CCCc2c1[nH]c1ccc(Cl)cc21 (stereo not shown) [Example 1, 6-chloro-2,3,4,9-tetrahydro-1H-carbazole-1-carboxamide] | 0.00013 mL/min/pmol | 100.00% | 63.43% | 55.02% | 54.21% | 51.13% | 52.5 min | 0.0002 mL/min/pmol | 100.00% | 46.28% | 24.21% | 16.02% | 11.55% | 16.9 min | 100% | 93.37% | 90.46% | 73.66% | 52.94% | 102.02% | Effects on life span and psychomotor and histological endpoints [4]: statistically significant effects on life span; Neuroprotection [5]: neuroprotective; Intersubject variability (% CV) in AUC(0,∞), average [6, 9]: 56%; Intersubject variability (% CV) in Cmax, average [6, 9]: 33%; Intersubject variability (% CV) in AUC(0,∞) [6, 10]: 35-71%; Intersubject variability (% CV) in Cmax [6, 10]: 23-46%; Safety and tolerability in human subjects ([6]; recent clinical trial (Westerberg et al.)): safe and well-tolerated; CLint scaled at 1 μM ([3]; human liver microsomes): 13.6 mL/min/kg; half-life at 1 μM [3, 8]: 128 min
4 | O=C(c1ccc(F)cc1)C1CCN(CCn2c(=O)[nH]c3ccccc3c2=O)CC1 [Ketanserin] | – | – | – | – | – | – | – | – | – | – | – | – | – | – | 100% | 78.08% | 64.73% | 44.75% | 26.52% | 97.70% | Clint ([3]; human liver microsomes): 39.88 mL/min/kg; T1/2 [3, 8]: 43.58 min
5 | Cc1ncc2n1-c1ccc(Cl)cc1C(c1ccccc1F)=NC2 [Midazolam] | >0.0014 mL/min/pmol | 100.00% | BQL | BQL | BQL | BQL | – | – | – | – | – | – | – | – | – | – | – | – | – | – | half-life at 0.2 mM ([1]; recombinant enzyme): < 5 min
6 | [2H]C1([2H])c2c([nH]c3ccc(Cl)cc23)C(C(N)=O)C([2H])([2H])C1([2H])[2H] (stereo not shown) [Example 3, 6-chloro-2,3,4,9-tetrahydro-1H-carbazole-2,2,3,3,4,4-d6-1-carboxamide] | 0.00010 mL/min/pmol | 100.00% | 69.80% | 61.49% | 63.89% | 60.39% | 70.7 min | 0.00019 mL/min/pmol | 100.00% | 45.84% | 26.01% | 17.34% | 12.82% | 17.9 min | 100% | 92.39% | 86.96% | 70.69% | 52.83% | 96.74% | CLint scaled at 1 μM ([3]; human liver microsomes): 13.5 mL/min/kg; half-life at 1 μM [3, 8]: 128 min
